# Assay: In vivo reduction in blood pressure relative to maximum achieved with the K-ATP standard P1075 in spontaneously hypertensive rat
row,Compound,ED50
1,O=C1OCC2=C1C(c1ccc(F)c(Br)c1)C1=C(O)OCC1=N2 (stereo not drawn),398 nM
2,O=C1CCCC2=C1[C@H](c1ccc(F)c(Br)c1)C1=C(CCS1(=O)=O)N2,427 nM
3,O=C1CCCC2=C1[C@@H](c1ccc(F)c(Br)c1)C1=C(O)OCC1=N2,2450 nM
